Experimental findings from US8298555B2, “Color cosmetic compositions for topical anti-aging skin treatment” (Discovery Partners, LLC, priority 2007, dated 2012) are described below.

The nature of the data set: stability of absorbance spectrum under intense pulsed light (IPL) flashes. Format: physicochemical. As to conditions: ten pulses at the maximum power of the flash lamp. From the text: Another aspect of the present invention is that controlled dissociation of the sodium-copper-chlorophyllin complex can occur in part because of the high stability of this complex. Normally, inorganic and organic copper salts, including copper-peptides, are not very stable with regard to binding copper. The inherent stability and lack of reactivity of sodium-copper-chlorophyllin is essential for this process to work successfully. […] Stability was monitored by measurement of the dye's full absorbance spectrum, since degradation of the dye would be detectable as changes in the absorbance spectrum.

Take sodium-copper-chlorophyllin: the “absorbance spectrum after IPL exposure (thermal and light stability)” value is listed as “remained unchanged”.
